Data published in patent US7208309B2, “Inhibitor-resistant HCV NS3 protease” (priority 2002, dated 2007).
Like-named read-outs stand apart in the source and are kept apart here. Numbered stars: 1 amine (or outer) side, 2 acyl side, 3 side chain; on linkers, the order of the positions; unused ones are H or OH. Square brackets hold non-standard residues; d marks the D form. Peptide text beside a SMILES is read from it. * marks the point of attachment. Hyp(2-Ph-quinolin-4-yl) = O=C(O)[C@@H]1C[C@@H](Oc2cc(-c3ccccc3)nc3ccccc23)CN1; X1 = C=CC1C[C@]1(N[*:1])C(=O)[*:2]; Hyp = O=C(O)[C@@H]1C[C@@H](O)CN1; Chg = N[C@H](C(=O)O)C1CCCCC1; Tle = CC(C)(C)[C@H](N)C(=O)O; Nva = CCC[C@H](N)C(=O)O; Bn = c1ccc(C*)cc1

What was measured:
NS3-NS4A protein D168V = biological target: T1, NS3-NS4A protein D168V (Hepatitis C virus genotype 1b, UniProt Q9WMX2, D1194V); assay: In vitro enzyme assay, Ki, full length NS3/NS4A protein D168V; format: biochemical, HCV genotype 1b
T1 construct: TEV protease cleavage site (N); made in house; host or cells: E. coli (pET11a)
Description: (§1) DNA encoding the NS3-NS4A coding region of HCV genotype 1b, that includes a 28-residue N-terminal sequence containing a hexahistidine tag and a TEV protease cleavage (Pause, A. et al. (2003) J. Biol. Chem. 278: 20374–20380) was amplified by PCR and then subcloned into the pET11a bacterial expression vector. Amino acid substitutions A156T and D168V were introduced into the NS3-NS4A coding region using standard site-directed mutagenesis procedures.
(§2) The NS3 protease domain (harboring A156T or D168V or R155Q mutations) were expressed in E. coli and purified as previously described (LaPlante, S. R. et al (1999) J. Biol. Chem. 274: 18618–18624). The NS3-NS4A proteins with either A156T or D168V mutation were also expressed in E. coli and the cell paste was resuspended in 5 mL of lysis buffer (50 mM sodium phosphate, pH 7.5, 20% glycerol, 1 mM EDTA, 0.5% Triton X-100, 0.5 M NaCl) per gram of cells, treated with DNase I, then clarified by a 30-min centrifugation at 150,000×g; the supernatant was diluted 2-fold in 50 mM sodium phosphate, pH 7.5, 0.5 M NaCl and imidazole was added to a final concentration of 25 mM. The NS3-NS4A complex solution was purified by successive steps on a Hi-Trap Ni^+2-chelating column, and poly(U)-Sepharose affinity column previously equilibrated in 50 mM sodium phosphate, pH 7.0, 10% glycerol, 0.2 M NaCl, 0.05% n-dodecyl-β-D-maltoside, 10 mM β-mercaptoethanol. The enzyme was eluted in the same buffer containing 2 M NaCl. The isolated enzymes were stored at −80° C.
(§3) Ki determination—The inhibition constant (Ki) was determined using the depsipeptide fluorogenic substrate anthranilyl-DDIVPAbu[C(O)—O]AMY(3-NO2)TW-OH. The cleavage reaction was continuously monitored at 23° C. on a BMG POLARstar® Galaxy fluorometer, equipped with excitation and emission filters of 320 and 405 nm respectively. […] IC50's were obtained from a non-linear curve fit using the Hill model applied to the % inhibition-concentration data and calculated through the use of SAS (Statistical Software System, SAS Institute Inc., Cary, N.C.).

NS3-NS4A protein WT = biological target: T2, NS3-NS4A protein WT (Hepatitis C virus genotype 1b, UniProt Q9WMX2); assay: In vitro enzyme assay, Ki, full length NS3/NS4A protein WT; format: biochemical, HCV genotype 1b
T2 construct: TEV protease cleavage site (N); made in house; host or cells: E. coli (pET11a)
Description: as §1, §2, §3

NS3-NS4A protein A156T = biological target: T3, NS3-NS4A protein A156T (Hepatitis C virus genotype 1b, UniProt Q9WMX2, A1182T); assay: In vitro enzyme assay, Ki, full length NS3/NS4A protein A156T; format: biochemical, HCV genotype 1b
T3 construct: TEV protease cleavage site (N); made in house; host or cells: E. coli (pET11a)
Description: as §1
(§4) The NS3 protease domain (harboring A156T or D168V or R155Q mutations) were expressed in E. coli and purified as previously described (LaPlante, S. R. et al (1999) J. Biol. Chem. 274: 18618–18624). […]
as §3

[1] = biological target: T4, NS3 protease (1-180) D168V-NS4A peptide complex (Hepatitis C virus genotype 1b, UniProt Q9WMX2, D1194V); assay: In vitro enzyme assay, Ki, NS3 protease-NS4A peptide complex D168V; format: biochemical, HCV; conditions: calculated Ki from IC50
T4 construct: the NS3 protease (1–180) coding region for wild-type; made in house; host or cells: E. coli
Description: (§5) Alternatively, the NS3 protease (1–180) coding region for wild-type with the sequence ASKKKK at the C-terminus was cloned into a bacterial expression vector and amino acid substitutions A156T, D168V and R155Q were introduced as described above.
as §4, §3

[2] = tested on: WT HCV subgenomic replicon in Huh-7 cells; assay: Inhibitor EC50 in WT replicon cell line; format: cell-based; conditions: Hepatitis C virus
[3] = biological target: T5, NS3 protease (1-180) A156T-NS4A peptide complex (Hepatitis C virus genotype 1b, UniProt Q9WMX2, A1182T); assay: In vitro enzyme assay, Ki, NS3 protease-NS4A peptide complex A156T; format: biochemical, HCV; conditions: calculated Ki from IC50
T5 construct: the NS3 protease (1–180) coding region for wild-type; made in house; host or cells: E. coli
Description: as §5, §4, §3

[4] = biological target: T6, NS3 protease (1-180) R155Q-NS4A peptide complex (Hepatitis C virus genotype 1b, UniProt Q9WMX2, R1181Q); assay: In vitro enzyme assay, Ki, NS3 protease-NS4A peptide complex R155Q; format: biochemical, HCV; conditions: calculated Ki from IC50
T6 construct: the NS3 protease (1–180) coding region for wild-type; made in house; host or cells: E. coli
Description: as §5, §4, §3

[5] = tested on: NS3 A156T mutant HCV subgenomic replicon in Huh-7 cells; assay: Inhibitor EC50 in NS3 A156T mutant replicon cell line; format: cell-based; conditions: Hepatitis C virus, Huh-7, read-out: EC50, A156T
Description: (§6) Specific isogenic HCV subgenomic replicon cDNAs individually containing only one of the inhibitor-resistant mutations, i.e. (in this example: A156T; or A156V; or D168V; or D168G) were cloned and corresponding in vitro transcribed RNA of these modified bi-cistronic replicons were generated. The mutant-encoding RNAs were used to construct mutant-containing replicon cell lines in naïve Huh-7 cells as described previously for other HCV replicons. […] They were also used to determine the level of inhibition of the mutant inhibitor-resistant cell lines in the presence of an unrelated HCV NS5B polymerase inhibitor or alpha-interferon. Using the assay described in WO 03/010141 (Example 48) the EC50 of each inhibitor was determined using the mutant cell lines.

[6] = tested on: bicistronic subgenomic HCV RNA replicon (S22.3 cell line); assay: HCV RNA replicon cell culture EC50 of the inhibitors used for selection; format: cell-based; conditions: EC50 stated for the inhibitor used in resistance selection, replicon cells
Description: The method described by Lohmann et al. (1999, Science 285:110) was used to mimic the replication of subgenomic HCV RNA in a system that is dependent on the function of HCV non-structural proteins and enzymes. This HCV RNA replicon system incorporates two cistrons: one encoding the HCV non-structural region and the second encoding a selectable neomycin resistant marker (i.e. gene encoding neomycin phosphotransferase). As one of skill in the art will appreciate, the second cistron may encode any marker suitable for selection purposes. Cell lines harboring such bicistronic, subgenomic HCV RNA, such as the S22.3 cell line, are described by Kukolj and Pause (see WO 02/052015, the contents of which are hereby incorporated by reference). These cell lines are useful in evaluating the efficacy and potency of potential anti-HCV therapeutics that inhibit one or more of the HCV non-structural proteins.
As shown, Huh-7 cells (8×10^6 cells) were transfected with the bicistronic subgenomic HCV RNA using transfection methods well-established in the art. Transfected Huh-7 cells were selected by growth in neomycin-containing media (0.5 mg/ml neomycin). Specifically, transfected cells replicate the RNA that produces neomycin phosphotransferase thereby rendering the cells resistant to the cytotoxic effect of neomycin. Mutated HCV replicons as described in WO 02/052015 can also be used in accordance with the present method to increase RNA replication and efficiency of replicon establishment.
inhibitor A=cyclopropa[e]pyrrolo [1,2-a][1,4]diazacyclopentadecine-14a(5H)-carboxylic acid, 6-[[(cyclopentyloxy) carbonyl]amino]-1,2,3,6,7,8,9,10,11,13a, 14,15,16,16a-tetradecahydro-2-[[7-methoxy-2-[2-[(1-methylethyl)amino]-4-thiazolyl]-4-quinolinyl]oxy]-5,16-dioxo-, (2R,6S, 12Z, 13aS, 14aR, 16aS), which is described as compound #822 in WO 00/59929, the contents of which is hereby incorporated by reference. The colonies were grown in the presence of increasing concentrations of this inhibitor (EC50 of 2 nM) ranging from 2 nM to 2000 nM.

[7] = biological target: T7, NS3 protease (1-180) WT-NS4A peptide complex (Hepatitis C virus genotype 1b, UniProt Q9WMX2); assay: In vitro enzyme assay, Ki, NS3 protease-NS4A peptide complex WT; format: biochemical, HCV
T7 construct: the NS3 protease (1–180) coding region for wild-type; made in house; host or cells: bacterial expression vector (E. coli)
Description: as §5, §4, §3

[8] = tested on: NS3 D168G mutant HCV subgenomic replicon in Huh-7 cells; assay: Inhibitor EC50 in NS3 D168G mutant replicon cell line; format: cell-based; conditions: Hepatitis C virus, Huh-7, read-out: EC50, D168G
Description: as §6

[9] = tested on: NS3 D168V mutant HCV subgenomic replicon in Huh-7 cells; assay: Inhibitor EC50 in NS3 D168V mutant replicon cell line; format: cell-based; conditions: Hepatitis C virus, Huh-7, read-out: EC50, D168V
Description: as §6

[10] = tested on: NS3 A156V mutant HCV subgenomic replicon in Huh-7 cells; assay: Inhibitor EC50 in NS3 A156V mutant replicon cell line; format: cell-based; conditions: Hepatitis C virus, Huh-7, read-out: EC50, A156V
Description: as §6

CCC[C@H](NC(=O)[C@@H]1C[C@@H](OCc2ccccc2)CN1C(=O)[C@@H](NC(=O)[C@@H](NC(=O)[C@@H](CCC(=O)O)NC(=O)[C@H](CC(=O)O)NC(C)=O)[C@@H](C)CC)C(C)C)C(=O)O [Compound E] (Ac-D[dE]IV[Hyp](Bn)[Nva]-OH)
Ki (NS3-NS4A protein D168V; read-out: Ki, D168V): 8100 nM
Ki (NS3-NS4A protein WT): 1600 nM

C=CC1C[C@]1(NC(=O)[C@@H]1C[C@@H](Oc2cc(-c3ccccc3)nc3ccccc23)CN1C(=O)[C@@H](NC(=O)[C@@H](NC(=O)[C@@H](CCC(=O)O)NC(=O)[C@H](CC(=O)O)NC(C)=O)C1CCCCC1)C(C)(C)C)C(=O)O (some centres unmarked) [Compound F] (Ac-D[dE][Chg][Tle][Hyp(2-Ph-quinolin-4-yl)][X1]-OH)
Ki (NS3-NS4A protein A156T; read-out: Ki, A156T): 29 nM
Ki (NS3-NS4A protein D168V; read-out: Ki, D168V): 12 nM
Ki (NS3-NS4A protein WT): 0.047 nM

COc1ccc2c(O[C@@H]3C[C@H]4C(=O)N[C@]5(C(=O)O)C[C@H]5/C=C\CCCCC[C@H](NC(=O)OC5CCCC5)C(=O)N4C3)cc(-c3csc(NC(C)C)n3)nc2c1 [inhibitor A, cyclopropa[e]pyrrolo [1,2-a][1,4]diazacyclopentadecine-14a(5H)-carboxylic acid, 6-[[(cyclopentyloxy)carbonyl]amino]-1,2,3,6,7,8,9,10,11,13a, 14,15,16,16a-tetradecahydro-2-[[7-methoxy-2-[2-[(1-methylethyl)amino]-4-thiazolyl]-4-quinolinyl]oxy]-5,16-dioxo-, (2R,6S, 12Z, 13aS, 14aR, 16aS)]
Ki [1]: 970 nM
Ki (NS3-NS4A protein A156T; calculated Ki from IC50, read-out: Ki, A156T (calculated Ki from IC50)): 870 nM
EC50 [2]: 0.9 nM
Ki [3]: 800 nM
Ki [4]: 220 nM
EC50 [5]: 547 nM
Ki (NS3-NS4A protein D168V; calculated Ki from IC50, read-out: Ki, D168V (calculated Ki from IC50)): 520 nM
EC50 ([6]; Hepatitis C virus): 2 nM
Ki [7]: 5.6 nM
Ki (NS3-NS4A protein WT): 1.6 nM
EC50 [8]: 23 nM
EC50 [9]: 735 nM
EC50 [10]: 324 nM

C=C[C@@H]1C[C@]1(NC(=O)[C@@H]1C[C@@H](Oc2cc(-c3csc(NC(C)=O)n3)nc3cc(OC)ccc23)CN1C(=O)[C@@H](NC(=O)OC1CCCC1)C(C)(C)C)C(=O)O [inhibitor B, cyclopropane carboxylic acid, N-[(cyclopentyloxy)carbonyl]-3-methyl-L-valyl-(4R)-4-[[2-[2-(acetylamino)-4-thiazolyl]-7-methoxy-4-quinolinyl]oxy]-L-prolyl-1-amino-2-ethenyl-, (1R,2S)-]
EC50 [6]: 40 nM

COc1ccc2c(O[C@@H]3C[C@H]4C(=O)N[C@]5(C(=O)O)C[C@H]5/C=C\CCCCC[C@H](NC(=O)OC(C)(C)C)C(=O)N4C3)cc(-c3csc(NC(C)=O)n3)nc2c1 [inhibitor C, Cyclopropa[e]pyrrolo[1,2-a][1,4]-diazacyclopentadecine-14a(5H)-carboxylic acid, 2-[[2-[2-(acetylamino)-4-thiazolyl]-7-methoxy-4-quinolinyl]oxy]-6-[[(1,1-dimethylethoxy)carbonyl]amino]-1,2,3,6,7,8,9,10,11,13a,14,15,16,16a-tetradecahydro-5,16-dioxo-, (2R,6S, 12Z, 13aS, 14aR, 16aS)-]
EC50 [6]: 5 nM
